{"source": "patent US7994313B2", "about": "(priority 2005, dated 2011)", "key": {"[1]": {"biological_target": "peripheral benzodiazepine receptor (\"PBR\") (Homo sapiens, UniProt P30536)", "sequence (P30536 whole entry, species assumed)": "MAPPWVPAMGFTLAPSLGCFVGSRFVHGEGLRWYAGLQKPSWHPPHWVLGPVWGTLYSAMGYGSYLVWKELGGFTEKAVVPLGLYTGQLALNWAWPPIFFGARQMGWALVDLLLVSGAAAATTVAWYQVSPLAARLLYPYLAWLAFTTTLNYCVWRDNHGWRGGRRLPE", "details": "cited from earlier work"}, "[2]": {"system": "central benzodiazepine receptor", "details": "cited from earlier work"}, "[3]": {"biological_target": "mitochondrial F1Fo-ATPase", "details": "cited from earlier work"}, "[4]": {"assay": "Simulated gastric fluid solubility at 37° C.", "type": "physicochemical", "details": "versus solvated Bz-423"}, "[5]": {"biological_target": "T1, mitochondrial F0F1 ATPase (Homo sapiens, UniProt P48047)", "assay": "ATP hydrolysis", "type": "biochemical", "details": "compared with solvated Bz-423 (FIG. 11)"}, "[6]": {"biological_target": "T1, mitochondrial F0F1 ATPase", "assay": "ATP synthesis", "type": "biochemical", "details": "compared with solvated Bz-423 (FIG. 12)"}, "[7]": {"system": "cells", "assay": "Cell viability", "type": "cell-based", "details": "compared with solvated Bz-423 (FIG. 13)"}, "[8]": {"assay": "Water solubility at 37° C.", "details": "versus solvated Bz-423"}, "[9]": {"system": "rodents", "details": "two daily doses; cited from earlier work"}}, "note": "pIC50, pKd, pKi: −log10 of the molar value."}
{"smiles": "CN1C(=O)C(Cc2ccc3ccccc3c2)N=C(c2ccc(O)cc2)c2cc(Cl)ccc21", "note": "(stereo not shown) [Bz-423]", "values": [{"measurement": "pKd", "setting": "[1]", "result": "~6.00"}, {"measurement": "binding to the central benzodiazepine receptor", "setting": "[2]", "result": "prevents binding to the central benzodiazepine receptor"}, {"measurement": "pKi", "setting": "[3]", "result": "~5.05"}]}
{"smiles": "CN1C(=O)C(Cc2ccc3ccccc3c2)N=C(c2ccc(O)cc2)c2cc(Cl)ccc21", "note": "(stereo not shown) [anhydrous BZ-423 ball milled]", "values": [{"measurement": "solubility in simulated gastric fluid, comparison in words", "setting": "[4]", "result": "more soluble than solvated Bz-423"}, {"measurement": "ATP hydrolysis", "setting": "[5]", "result": "capable of inhibiting ATP hydrolysis"}, {"measurement": "ATP synthesis", "setting": "[6]", "result": "not inhibiting cell synthesis"}, {"measurement": "cell viability", "setting": "[7]", "result": "not affecting cell viability"}, {"measurement": "water solubility, comparison in words", "setting": "[8]", "result": "more soluble than solvated Bz-423"}]}
{"smiles": "CC[C@H]1/C=C/C=C/C[C@@H](C)[C@H](O)[C@@](C)(O)C(=O)[C@@H](C)[C@H](O)[C@@H](C)C(=O)[C@@H](C)[C@H](O)[C@@H](C)/C=C/C(=O)O[C@@H]2[C@H](C)[C@H](CC1)O[C@]1(CC[C@H](C)[C@H](C[C@@H](C)O)O1)[C@H]2C", "note": "[oligomycin, reference compound]", "values": [{"measurement": "pIC50", "setting": "[3]", "result": 8.00}, {"measurement": "LD50", "setting": "[9]", "result": 0.5, "unit": "mg/kg"}]}
